Source: ChEMBL document CHEMBL3352074, “Novel ROCK inhibitors for the treatment of pulmonary arterial hypertension” (Bioorg Med Chem Lett, 2014)

What was measured:
[1] = AUC (0 to 6 hrs) in mouse plasma at 1 mg/kg, it; type: ADME, organism-based; design: time < 6 hr, dose 1 mg/kg, route endotracheal; conditions: inhaled or intranasal
[2] = Drug concentration in Balb/C mouse lung at 1 mg/kg, iv after 3 hrs; type: ADME, organism-based; design: dose 1 mg/kg, route intravenous; conditions: read-out: Drug uptake
[3] = Drug concentration in Balb/C mouse lung at 1 mg/kg, it after 0.5 hrs; type: ADME, organism-based; design: dose 1 mg/kg, route endotracheal; conditions: inhaled or intranasal, read-out: Drug uptake
[4] = AUC (0 to 6 hrs) in mouse lung at 1 mg/kg, iv; type: ADME, organism-based; design: time < 6 hr, dose 1 mg/kg, route intravenous
[5] = Plasma concentration in Balb/C mouse at 1 mg/kg, it after 0.5 hrs; type: ADME, organism-based; design: dose 1 mg/kg, route endotracheal; conditions: inhaled or intranasal
[6] = Drug concentration in Balb/C mouse lung at 1 mg/kg, iv after 0.5 hrs; type: ADME, organism-based; design: dose 1 mg/kg, route intravenous; conditions: read-out: Drug uptake
[7] = Drug concentration in Balb/C mouse lung at 1 mg/kg, it after 3 hrs; type: ADME, organism-based; design: dose 1 mg/kg, route endotracheal; conditions: inhaled or intranasal, read-out: Drug uptake
[8] = Plasma concentration in Balb/C mouse at 1 mg/kg, it after 3 hrs; type: ADME, organism-based; design: dose 1 mg/kg, route endotracheal; conditions: inhaled or intranasal
[9] = Plasma concentration in Balb/C mouse at 1 mg/kg, iv after 3 hrs; type: ADME, organism-based; design: dose 1 mg/kg, route intravenous
[10] = AUC (0 to 6 hrs) in mouse plasma at 1 mg/kg, iv; type: ADME, organism-based; design: time < 6 hr, dose 1 mg/kg, route intravenous
[11] = Plasma concentration in Balb/C mouse at 1 mg/kg, iv after 0.5 hrs; type: ADME, organism-based; design: dose 1 mg/kg, route intravenous
[12] = AUC (0 to 6 hrs) in mouse lung at 1 mg/kg, it; type: ADME, organism-based; design: time < 6 hr, dose 1 mg/kg, route endotracheal; conditions: inhaled or intranasal
[13] = Apparent permeability from apical to basolateral side across human Caco2 cells; type: ADME, cell-based; conditions: Caco-2

| AUC(0-t) at 6 h [1] [µM·h] | concentration at 3 h [2] [nM] | concentration at 0.5 h [3] [µM] | AUC(0-t) at 6 h [4] [µM·h] | concentration at 0.5 h [5] [nM] | concentration at 0.5 h [6] [nM] | concentration at 3 h [7] [nM] | concentration at 3 h [8] [nM] | concentration at 3 h [9] [nM] | AUC(0-t) at 6 h [10] [µM·h] | concentration at 0.5 h [11] [nM] | AUC(0-t) at 6 h [12] [µM·h] | Papp A→B [13] [×10⁻⁶ cm/s] | SMILES |
| --- | --- | --- | --- | --- | --- | --- | --- | --- | --- | --- | --- | --- | --- |
| 0.302 | 200 | 32.5 | 3.01 | 500 | 2000 | 1900 | 20 | 10 | 0.372 | 400 | 16 | – | c1cc2c(N3CCNCC3)nc(-c3ccc4[nH]ncc4c3)nc2cn1 |
| 0.665 | – | – | 5.92 | – | – | – | – | – | 0.642 | – | 9.31 | 5.65 | c1ccc2c(N3CCNCC3)nc(-c3ccc4[nH]ncc4c3)nc2c1 |
